In patent publication US20060241073A1, “Means and methods for counteracting fatty acid accumulation” (priority 2005, published 2006):
Like-named read-outs stand apart in the source and are kept apart here.

Legend:
[1] = test system: phytanic acid (omega-1)-hydroxylase (cytochrome P450); test: in vitro; settings: human, pH 7.7
Protocol: (§1) Reactions were initiated by adding NADPH (final concentration 1 mM) and terminated by addition of 0.1 ml 1 M HCl. […] After addition of the internal standard (IS, 2 nmol 3-hydroxyheptadecanoic acid in 20 μl ethanol) the samples were extracted twice with 6 ml ethylacetate-diethylether (1:1 v/v). The organic layers were collected and the solvents evaporated. The residue was dissolved in 4 ml ethylacetate and further dried with anhydrous MgSO4 and again evaporated. […] TMS ester/ether formation was performed by incubating the samples with 40 μl BSTFA containing 1% TMCS and 10 μl pyridine at 80° C. for 1 hour. After the incubation the solution was directly used for GC-MS analysis.
(§2) FIG. 7. […] Pooled human liver microsomes were incubated with phytanic acid in the presence of different concentrations of imidazole derivatives. […] The data shown represent means of duplicate experiments.

[2] = test system: phytanic acid omega-hydroxylase (cytochrome P450) of rat liver microsomes; test: Phytanic acid omega-hydroxylation in rat liver microsomes (formation of omega-hydroxyphytanic acid, GC/MS); assay type: biochemical; settings: for effect on the formation of omega-hydroxyphytanic acid: different concentrations of imidazole derivatives (FIG. 4A)
Protocol: (§3) To this end, Male Wistar rats fed a standard laboratory diet, were fasted overnight before sacrifice and removal of the liver. The livers were rapidly chilled and washed several times in buffer containing 250 mM sucrose, 0.5 mM EDTA, 2 mM MOPS/KOH (final pH 7.4). Subsequently, the livers were minced and homogenized with a Potter S homogenizer (B. Braun, Germany) with a teflon pestle at 500 rpm (5 strokes), followed by centrifugation of the homogenate for 10 min at 550×g. The obtained post-nuclear supernatant was subjected to centrifugation at 22,500×g for 10 min to remove mitochondria and lysosomes. Finally, the microsomal fraction was obtained by centrifugation of the supernatant for 3 h at 32,000×g. The microsomal pellet fraction was taken up in PBS containing 5 mM DTT and divided into small aliquots, which were stored at −80° C. The microsomes were sonicated 3 times for 10 s at 8 Watt before each experiment.
The standard reaction mixture consisted of 100 mM potassium phosphate buffer pH 7.4 and rat liver microsomes (1 mg/ml end concentration) plus phytanic acid dissolved in DMSO (200 μM end concentration, unless indicated otherwise). Reactions were initiated by addition of NADPH at a final concentration of 1 mM. The final reaction volume was 0.2 ml. Reactions were terminated by addition of 0.2 ml 1 M HCl. […] The internal standard (IS, 10 nmol 3-hydroxyheptadecanoic acid in 20 μl ethanol) was added to this aqueous mixture. The samples were extracted twice with 6 ml ethylacetate-diethylether (1:1 v/v). The organic layer was collected and the solvents evaporated under vacuum using a rotary evaporator at room temperature. The residue was dissolved in 4 ml ethylacetate and further dried with MgSO4. After spinning down the MgSO4, the solution was transferred to 4 ml reaction vials and the solvent evaporated under nitrogen. […] TMS ester/ether formation was performed with 40 μl N,O-bis-(trimethylsilyl)trifluoroacetamide (BSTFA) containing 1% trimethylchlorosilane (TMCS) and 10 μl pyridine. The vials were sealed with a Teflon-lined screwcap and incubated at 80° C. for 1 hour. After the incubation the solution could be directly used for GC-MS analysis.
The identity of the substrate, the internal standard, and the reaction product(s) was verified by taking mass spectra of the pertrimethylsilylated derivatives in the scanning electron impact mode.
Based on the experiments described above, I selected the following assay conditions: 0,75 mg/ml methyl-beta-cyclodextrin, 100 mM potassium phosphate (pH 7.6), 1 mM NADPH, and 200 μM phytanic acid. Under these conditions, formation of omega-hydroxyphytanic acid was linear with time up to 60 min, and with protein up to 1 mg/ml (data not shown).
FIG. 4. […] Rat liver microsomes were incubated with phytanic acid in the presence of different concentrations of imidazole derivatives. The inhibitory effect of the imidazole derivatives on the formation of omega-hydroxyphytanic acid (omega-HPA; A) and (omega-1)-hydroxyphytanic acid (B) is shown. The data shown represent means of duplicate experiments.

[3] = test system: phytanic acid omega-hydroxylase (cytochrome P450) of pooled human liver microsomes; test: Phytanic acid omega-hydroxylation in pooled human liver microsomes (formation of omega-hydroxyphytanic acid, GC/MS); settings: for effect on the formation of omega-hydroxyphytanic acid / Km: pooled human liver microsomes; for effect on the formation of omega-hydroxyphytanic acid: different concentrations of imidazole derivatives (FIG. 7A)
Protocol: as §1, §2

[4] = test system: phytanic acid omega-hydroxylase (cytochrome P450); test: in vitro; settings: human, pH 7.7
Protocol: as §1, §2

[5] = test system: phytanic acid (omega-1)-hydroxylase (cytochrome P450) of rat liver microsomes; test: Phytanic acid (omega-1)-hydroxylation in rat liver microsomes (formation of (omega-1)-hydroxyphytanic acid, GC/MS); assay type: biochemical; settings: different concentrations up to 100 μM (FIG. 4B)
Protocol: as §3
The standard reaction mixture consisted of 100 mM potassium phosphate buffer pH 7.4 and rat liver microsomes (1 mg/ml end concentration) plus phytanic acid dissolved in DMSO (200 μM end concentration, unless indicated otherwise). Reactions were initiated by addition of NADPH at a final concentration of 1 mM. The final reaction volume was 0.2 ml. Reactions were terminated by addition of 0.2 ml 1 M HCl. […]

Row | Structure (SMILES) | IC50 [1] [µM] | effect on the formation of omega-hydroxyphytanic acid [2] | effect on the formation of omega-hydroxyphytanic acid [3] | IC50 [4] [µM] | effect on the formation of (omega-1)-hydroxyphytanic acid [5] | other results
1 | c1ccc(-c2ccc(C(c3ccccc3)n3ccnc3)cc2)cc1 (stereo not drawn) [Bifonazole] | < 2 | most potent inhibitor | inhibit product formation | 13 | – | –
2 | Clc1ccccc1C(c1ccccc1)(c1ccccc1)n1ccnc1 [Clotrimazole] | 3 | inhibited | inhibit product formation | 43 | stimulatory effect at low concentrations with little inhibition at the highest concentrations used | –
3 | CC(=O)N1CCN(c2ccc(OCC3COC(Cn4ccnc4)(c4ccc(Cl)cc4Cl)O3)cc2)CC1 (stereo not drawn) [Ketoconazole] | – | inhibited | – | – | – | –
4 | Clc1ccc(COC(Cn2ccnc2)c2ccc(Cl)cc2Cl)c(Cl)c1 (stereo not drawn) [Miconazole] | < 2 | inhibited | inhibit product formation | 30 | most potent inhibitor | –
5 | NC(=O)C1=CN([C@@H]2O[C@H](COP(=O)(O)OP(=O)(O)OC[C@H]3O[C@@H](n4cnc5c(N)ncnc54)[C@H](OP(=O)(O)O)[C@@H]3O)[C@@H](O)[C@H]2O)C=CC1 [NADPH] | – | – | – | – | – | Km ([2]; NADPH regenerating system, Lineweaver-Burke plot (FIG. 3C), read-out: apparent Km for NADPH): 35 µM; Km ([3]; read-out: Km for NADPH, NADPH-regenerating system, Lineweaver Burke plot (FIG. 6C), means of duplicate experiments): 2 µM
6 | CC(C)CCCC(C)CCCC(C)CCCC(C)CC(=O)O (stereo not drawn) [phytanic acid, 3,7,11,15-tetramethylhexadecanoic acid] | – | – | – | – | – | Km ([2]; fixed molar ratio phytanic acid/methyl-beta-cyclodextrin (FIG. 3D), read-out: apparent Km for phytanic acid): 114 ± 9 µM; ratio omega:(omega-1) hydroxylated products ([2]; four separate experiments): 2.2±0.2; ratio omega:(omega-1) hydroxylated products ([3]; pooled human microsomes, four separate experiments): 15.4±0.7; Km ([3]; read-out: apparent Km for phytanic acid, estimated as substrate concentration with half maximal omega-hydroxylation activity (FIG. 6D)): 80 µM
